Measured values as given in BigSolDB 2.1.

O=C(O)c1cc2ccccc2[nH]1
Conditions	solubility (mole fraction)
in 1,4-dioxane, 286.35 K	0.00276
in 1,4-dioxane, 291.25 K	0.00343
in 1,4-dioxane, 297.05 K	0.00427
in 1,4-dioxane, 301.95 K	0.00476
in 1,4-dioxane, 306.95 K	0.0052
in 1,4-dioxane, 312.15 K	0.00592
in 1,4-dioxane, 317.25 K	0.00636
in 1,4-dioxane, 321.65 K	0.00689
in 1,4-dioxane, 326.55 K	0.00728
in 1,4-dioxane, 331.95 K	0.00791
in 1,4-dioxane, 336.65 K	0.00866
in dichloromethane, 283.15 K	0.000684
in dichloromethane, 287.15 K	0.000724
in dichloromethane, 292.75 K	0.000873
in dichloromethane, 295.65 K	0.00104
in dichloromethane, 299.05 K	0.00119
in dichloromethane, 302.65 K	0.00134
in dichloromethane, 307.25 K	0.00168
in dichloromethane, 313.15 K	0.00224
in ethanol, 278.15 K	0.0569
in ethanol, 283.15 K	0.062
in ethanol, 287.95 K	0.0666
in ethanol, 292.75 K	0.0701
in ethanol, 297.95 K	0.078
in ethanol, 303.05 K	0.0816
in ethanol, 308.35 K	0.0881
in ethanol, 313.25 K	0.0974
in ethanol, 318.65 K	0.102
in ethanol, 324.95 K	0.116
in ethanol, 329.85 K	0.12
in ethanol, 336.25 K	0.135
in ethanol, 342.75 K	0.148
in ethanol, 348.25 K	0.154
in ethanol, 353.15 K	0.165
in ethyl acetate, 284.05 K	0.0433
in ethyl acetate, 290.45 K	0.06
in ethyl acetate, 294.65 K	0.0735
in ethyl acetate, 299.55 K	0.0865
in ethyl acetate, 304.65 K	0.1
in ethyl acetate, 309.35 K	0.108
in ethyl acetate, 313.95 K	0.116
in ethyl acetate, 318.65 K	0.121
in ethyl acetate, 324.35 K	0.128
in ethyl acetate, 328.75 K	0.134
in ethyl acetate, 333.65 K	0.14
in isopropanol, 278.35 K	0.0412
in isopropanol, 285.15 K	0.0525
in isopropanol, 291.05 K	0.0606
in isopropanol, 298.15 K	0.0701
in isopropanol, 305.55 K	0.0855
in isopropanol, 310.15 K	0.0949
in isopropanol, 315.75 K	0.108
in isopropanol, 321.35 K	0.119
in isopropanol, 328.65 K	0.131
in isopropanol, 333.35 K	0.149
in isopropanol, 338.75 K	0.161
in isopropanol, 342.25 K	0.171
in isopropanol, 348.15 K	0.191
in isopropanol, 353.25 K	0.201
in isopropanol, 358.15 K	0.219
in methanol, 278.15 K	0.0679
in methanol, 283.35 K	0.0695
in methanol, 288.95 K	0.0723
in methanol, 293.25 K	0.0752
in methanol, 298.15 K	0.0856
in methanol, 303.35 K	0.0925
in methanol, 307.85 K	0.102
in methanol, 312.95 K	0.118
in methanol, 317.75 K	0.135
in methanol, 323.15 K	0.159
in methanol, 328.25 K	0.189
in methanol, 333.15 K	0.23
in n-butanol, 278.15 K	0.0478
in n-butanol, 285.35 K	0.0538
in n-butanol, 291.05 K	0.0605
in n-butanol, 298.55 K	0.0687
in n-butanol, 305.25 K	0.0758
in n-butanol, 310.75 K	0.0832
in n-butanol, 315.15 K	0.0909
in n-butanol, 321.75 K	0.101
in n-butanol, 328.35 K	0.112
in n-butanol, 333.95 K	0.125
in n-butanol, 338.15 K	0.14
in n-butanol, 342.45 K	0.143
in n-butanol, 348.25 K	0.16
in n-butanol, 353.45 K	0.174
in n-butanol, 358.15 K	0.19
in n-propanol, 278.25 K	0.0437
in n-propanol, 285.45 K	0.0521
in n-propanol, 291.35 K	0.0588
in n-propanol, 298.15 K	0.068
in n-propanol, 305.75 K	0.0801
in n-propanol, 311.25 K	0.088
in n-propanol, 317.75 K	0.0993
in n-propanol, 322.15 K	0.105
in n-propanol, 328.05 K	0.115
in n-propanol, 333.55 K	0.128
in n-propanol, 339.15 K	0.138
in n-propanol, 344.85 K	0.151
in n-propanol, 349.75 K	0.162
in n-propanol, 353.15 K	0.176
in n-propanol, 358.15 K	0.18
in toluene, 287.85 K	0.00052
in toluene, 293.65 K	0.000645
in toluene, 297.95 K	0.000722
in toluene, 302.85 K	0.000786
in toluene, 307.05 K	0.000898
in toluene, 311.55 K	0.000989
in toluene, 313.55 K	0.00104
in toluene, 317.45 K	0.00113
in toluene, 325.15 K	0.00155
in toluene, 337.85 K	0.00295
in toluene, 342.55 K	0.00379
in toluene, 348.25 K	0.00427
in toluene, 360.15 K	0.00642
in water, 293.15 K	6.79e-05
in water, 298.15 K	6.88e-05
in water, 303.15 K	7.03e-05
in water, 308.05 K	7.17e-05
in water, 312.65 K	7.88e-05
in water, 318.15 K	9.36e-05
in water, 323.15 K	0.000115
in water, 328.15 K	0.000149
in water, 333.15 K	0.0002
in water, 338.15 K	0.00028
in water, 343.15 K	0.000409
in water, 348.15 K	0.000616
in water, 353.15 K	0.000962
in water, 358.15 K	0.00155
